Patent publication US11413241B2, “Method for preparing a composition with a low dissolved oxygen content, comprising acetaminophen, and optionally one or more NSAIDs, and a composition obtained thereof” (Hyloris Developments SA, priority 2017, dated 2022)

Tests used:
[1] = Amount of acetaminophen at various points in time and different pH; type: physicochemical; conditions: pH range 6.3-7.3, various points in time
Description: The amount of acetaminophen was studied at varies points in time and for different pH's.

[2] = from literature; cited from earlier work
[3] = Dissolution/precipitation of sodium ibuprofen 2H2O alone in water at decreasing pH; type: physicochemical
[4] = Dissolution of sodium ibuprofen 2H2O in the acetaminophen-ibuprofen formulation at varying pH; type: physicochemical

Compound: CC(=O)Nc1ccc(O)cc1 [acetaminophen, N-(4-hydroxyphenyl)acetamide]
- degradation of acetaminophen [1]: minimal degradation
- pH at which rate of degradation is minimal [2]: ~6

Compound: CC(C)Cc1ccc(C(C)C(=O)O)cc1 (stereo not shown) [ibuprofen]
- pH at which precipitation is observed ([3]; 3.85 mg/ml sodium ibuprofen 2H2O in water, pH gradually decreased): 5.75
- precipitation ([3]; pH 6, stored 1 month at 25° C.): showed precipitation
- precipitation ([3]; pH 6.2, stored 1 month at 25° C.): precipitation was absent

Compound: CC(C)Cc1ccc(C(C)C(=O)O)cc1 (stereo not shown) [sodium ibuprofen 2H2O]
- pH of composition ([3]; 3.85 mg/ml in water, before pH decrease): 8.80
- Dissolved ([3]; alone in water, pH 3): No
- Dissolved ([3]; alone in water, pH 4): No
- Dissolved ([3]; alone in water, pH 5): No
- Dissolved ([3]; alone in water, pH 5.5): No
- Dissolved ([3]; alone in water, pH 5.8): Yes
- Dissolved ([3]; alone in water, pH 6): Yes
- Dissolved ([3]; alone in water, pH 6.2): Yes
- Dissolved ([3]; alone in water, pH 6.4): Yes
- Dissolved ([3]; alone in water, pH 6.6): Yes
- Dissolved ([3]; alone in water, pH 6.8): Yes
- Dissolved ([3]; alone in water, pH 7): Yes
- Dissolved ([3]; alone in water, pH 7.5): Yes
- Dissolved ([3]; in water after 1 month storage at 25° C., pH 5.8): No
- Dissolved ([3]; in water after 1 month storage at 25° C., pH 6): No
- Dissolved ([3]; in water after 1 month storage at 25° C., pH 6.2): Yes
- Dissolved ([3]; in water after 1 month storage at 25° C., pH 6.4): Yes
- Dissolved ([3]; in water after 1 month storage at 25° C., pH 6.6): Yes
- Dissolved ([3]; in water after 1 month storage at 25° C., pH 6.8): Yes
- Dissolved ([3]; in water after 1 month storage at 25° C., pH 7): Yes
- Dissolved ([3]; in water after 1 month storage at 25° C., pH 7.5): Yes
- Dissolved ([4]; in the formulation 3 mg/ml Acetaminophen 10 mg/ml Ibuprofen, pH 6.2): Yes
- Dissolved ([4]; in the formulation 3 mg/ml Acetaminophen 10 mg/ml Ibuprofen, pH 6.3): Yes
- Dissolved ([4]; in the formulation 3 mg/ml Acetaminophen 10 mg/ml Ibuprofen, pH 6.4): Yes
- Dissolved ([4]; in the formulation 3 mg/ml Acetaminophen 10 mg/ml Ibuprofen, pH 6.6): Yes
- Dissolved ([4]; in the formulation 3 mg/ml Acetaminophen 10 mg/ml Ibuprofen, pH 7): Yes
- Dissolved ([4]; in the formulation Acetaminophen - Ibuprofen, 1 month, pH 6.2): No
- Dissolved ([4]; in the formulation Acetaminophen - Ibuprofen, 1 month, pH 6.3): Yes
- Dissolved ([4]; in the formulation Acetaminophen - Ibuprofen, 1 month, pH 6.4): Yes
- Dissolved ([4]; in the formulation Acetaminophen - Ibuprofen, 1 month, pH 6.6): Yes
- Dissolved ([4]; in the formulation Acetaminophen - Ibuprofen, 1 month, pH 7): Yes
- Dissolved ([4]; in the formulation Acetaminophen - Ibuprofen, 6 months, 25° C., pH 6.3): Yes
- Dissolved ([4]; in the formulation Acetaminophen - Ibuprofen, 6 months, 25° C., pH 6.4): Yes
- Dissolved ([4]; in the formulation Acetaminophen - Ibuprofen, 6 months, 25° C., pH 6.6): Yes
- Dissolved ([4]; in the formulation Acetaminophen - Ibuprofen, 6 months, 25° C., pH 7): Yes
